Reference: patent publication US4266001A, “Light-sensitive mixture” (Hoechst Aktiengesellschaft, priority 1978, dated 1981)

Assay: Solubility of naphthoquinone diazides in ethylene glycol monomethyl ether
Format: physicochemical
Settings: for Solubility (%): 26° C., stirred for 2 hours, 2 g in 50 g, crystalline samples, substantially free from amorphous fractions; for solubility (in words): Table 2
Experimental: The solubility of the new naphthoquinone diazides, as compared with the known bis-1,2-naphthoquinone-2-diazide-5-sulfonic acid ester of 2,2-bis-(4-hydroxyphenyl)-propane (comparison compound V), was determined as follows: 2 g of the naphthoquinone diazide were suspended in each case in 50 g of ethylene glycol monomethyl ether and stirred for 2 hours at 26° C. Then, the mixture was filtered by suction, the filter residue was washed successively with 10 cm^3 of methanol and 10 cm^3 of ether and dried in vacuo and its weight was determined. The solubilities in ethylene glycol monomethyl ether, listed in Table 2, were calculated from the difference to the quantity employed: […]
In all cases, it was confirmed by diffraction diagrams taken with an X-ray diffractometer that the samples tested were substantially free from amorphous fractions. In every case, the solubility of a solid compound which is wholly or partially present in the amorphous state is markedly higher than that of the corresponding crystalline compound. A comparison with these values is, however, unreliable because the solubilities of amorphous compounds cannot be determined with exact reproducibility due to the differing tendency of supersaturated solutions to crystallize.

Row | Structure (SMILES) | Solubility (%) | solubility (in words)
1 | COC(=O)CCC(C)(c1ccc(OS(=O)(=O)c2cccc3c2C=CC(=[N+]=[N-])C3=O)cc1)c1ccc(OS(=O)(=O)c2cccc3c2C=CC(=[N+]=[N-])C3=O)cc1 (centres unmarked) [Compound 2] | 1.85 | very good solubility
2 | CCOCCOC(=O)CCC(C)(c1ccc(OS(=O)(=O)c2cccc3c2C=CC(=[N+]=[N-])C3=O)cc1)c1ccc(OS(=O)(=O)c2cccc3c2C=CC(=[N+]=[N-])C3=O)cc1 (centres unmarked) [Compound 8] | 3.80 | very good solubility
3 | CCCOC(=O)C(c1ccc(OS(=O)(=O)c2cccc3c2C=CC(=[N+]=[N-])C3=O)cc1)c1ccc(OS(=O)(=O)c2cccc3c2C=CC(=[N+]=[N-])C3=O)cc1 (centres unmarked) [Compound 19] | 0.95 | 
4 | CCCCOC(=O)C(c1ccc(OS(=O)(=O)c2cccc3c2C=CC(=[N+]=[N-])C3=O)cc1)c1ccc(OS(=O)(=O)c2cccc3c2C=CC(=[N+]=[N-])C3=O)cc1 (centres unmarked) [Compound 20] | > 7.4 | very good solubility
5 | CCOCCOC(=O)C(c1ccc(OS(=O)(=O)c2cccc3c2C=CC(=[N+]=[N-])C3=O)cc1)c1ccc(OS(=O)(=O)c2cccc3c2C=CC(=[N+]=[N-])C3=O)cc1 (centres unmarked) [Compound 22] | 6.0 | very good solubility
6 | CC(C)(c1ccc(OS(=O)(=O)c2cccc3c2C=CC(=[N+]=[N-])C3=O)cc1)c1ccc(OS(=O)(=O)c2cccc3c2C=CC(=[N+]=[N-])C3=O)cc1 [V, bis-1,2-naphthoquinone-2-diazide-5-sulfonic acid ester of 2,2-bis-(4-hydroxyphenyl)-propane, reference compound] | 0.75 | 

Next, values leading:

Row | Solubility (%) | solubility (in words) | Structure (SMILES)
7 | 0.86 |  | CCOC(=O)CCC(C)(c1ccc(OS(=O)(=O)c2cccc3c2C=CC(=[N+]=[N-])C3=O)cc1)c1ccc(OS(=O)(=O)c2cccc3c2C=CC(=[N+]=[N-])C3=O)cc1 (centres unmarked) [Compound 3]
8 | 0.91 |  | COCCOC(=O)CCC(C)(c1ccc(OS(=O)(=O)c2cccc3c2C=CC(=[N+]=[N-])C3=O)cc1)c1ccc(OS(=O)(=O)c2cccc3c2C=CC(=[N+]=[N-])C3=O)cc1 (centres unmarked) [Compound 7]
9 | 1.54 | very good solubility | COC(C)CCOC(=O)CCC(C)(c1ccc(OS(=O)(=O)c2cccc3c2C=CC(=[N+]=[N-])C3=O)cc1)c1ccc(OS(=O)(=O)c2cccc3c2C=CC(=[N+]=[N-])C3=O)cc1 (centres unmarked) [Compound 9]
